Data reported in patent EP0531958A1, “6-Aminoquinolones, their synthesis and their use as antibacterial agents” (MEDIOLANUM FARMACEUTICI S.P.A., priority 1991, dated 1993).
In brackets after ≈: the same amount, converted by molar mass. Like-named read-outs stand apart in the source and are kept apart here.

What was measured:
Type in all cases: cell-based
Gram + = assay: MIC test, average over the 5 gram-positive test germs; conditions: 24 h
Procedure: (§1) As to the antibacterial activity, there was determined the Least (Minimum) Inhibiting Concentration (MIC), by working according to the following operative conditions.
(§2) There were used suspensions of test germs (5 gram-positive and 15 gram-negative) having a known titre, kept freezed at -80°C and diluted, at the time of use, in peptonized water up to a concentration of 1-2.10⁷ cfu/ml.
(§3) A few mg of the products, according to the invention were weighed sufficient for preparing parent solutions in DMSO + NaOH (1N) containing 2560 µg/ml (64µg/ml/dish). From the thus prepared parent solutions there were prepared 12 serial dilutions (1:2) down to the concentration of 1.25 µg/ml.
(§4) 0.5 ml of the different dilutions of each product were distributed on dishes containing 19.5 ml of agarized medium (TSA), maintained in a fluid state at the temperature of 50°C. After slight stirring, the dishes were made to solidify and dry under hood (laminar flow).
(§5) The MIC tests (Least or "Minimum" Inhibiting Concentration) were performed by using a Steers multiwell inoculator having 36 wells, each containing 200 µl of bacterial suspension.
(§6) After inoculation, the dishes were placed into a thermostat and checked after 24 h of incubation at 35°C.
(§7) The MIC is defined as the lowermost product concentration (µg/ml) inhibiting the visible growth of the microorganisms.

Gram - = assay: MIC test, average over the 15 gram-negative test germs; conditions: 24 h
Procedure: as §1, §2, §3, §4, §5, §6, §7

[1] = tested on: Staphylococcus aureus MPR 5; assay: MIC test, agar dilution with Steers multiwell inoculator; conditions: MPR5, TSA dishes, 24 h at 35°C, read-out: Minimum Inhibiting Concentration
Procedure: as §1, §2, §3, §4, §5, §6, §7

[2] = tested on: Staphylococcus epidermidis HCF Berset C.; assay: as above; conditions: TSA dishes, 24 h at 35°C, read-out: Minimum Inhibiting Concentration
Procedure: as §1, §2, §3, §4, §5, §6, §7

[3] = tested on: Providencia stuardii CNUR 5; assay: as above; conditions: CNUR5, TSA dishes, 24 h at 35°C, read-out: Minimum Inhibiting Concentration
Procedure: as §1, §2, §3, §4, §5, §6, §7

[4] = tested on: Pseudomonas aeruginosa CNUR 4; assay: as above; conditions: CNUR4, TSA dishes, 24 h at 35°C, read-out: Minimum Inhibiting Concentration
Procedure: as §1, §2, §3, §4, §5, §6, §7

[5] = tested on: Enterobacter cloacae OMNF 1153; assay: as above; conditions: OMNF1153, TSA dishes, 24 h at 35°C, read-out: Minimum Inhibiting Concentration
Procedure: as §1, §2, §3, §4, §5, §6, §7

[6] = tested on: Escherichia coli ATCC 8739; assay: as above; conditions: ATCC8739, TSA dishes, 24 h at 35°C, read-out: Minimum Inhibiting Concentration
Procedure: as §1, §2, §3, §4, §5, §6, §7

[7] = tested on: Staphylococcus epidermidis CPHL A2; assay: as above; conditions: CPHLA2, TSA dishes, 24 h at 35°C, read-out: Minimum Inhibiting Concentration
Procedure: as §1, §2, §3, §4, §5, §6, §7

Escherichia coli ISF 432 = assay: as above; conditions: ISF432, TSA dishes, 24 h at 35°C, read-out: Minimum Inhibiting Concentration
Procedure: as §1, §2, §3, §4, §5, §6, §7

Shighella enteritidis = assay: as above; conditions: TSA dishes, 24 h at 35°C, read-out: Minimum Inhibiting Concentration
Procedure: as §1, §2, §3, §4, §5, §6, §7

[8] = tested on: Klebsiella pneumoniae ATCC 10031; assay: as above; conditions: ATCC10031, TSA dishes, 24 h at 35°C, read-out: Minimum Inhibiting Concentration
Procedure: as §1, §2, §3, §4, §5, §6, §7

[9] = tested on: Streptococcus facealis LEP Br.; assay: as above; conditions: TSA dishes, 24 h at 35°C, read-out: Minimum Inhibiting Concentration
Procedure: as §1, §2, §3, §4, §5, §6, §7

[10] = tested on: Pseudomonas aeruginosa ATCC 9027; assay: as above; conditions: ATCC9027, TSA dishes, 24 h at 35°C, read-out: Minimum Inhibiting Concentration
Procedure: as §1, §2, §3, §4, §5, §6, §7

Proteus vulgaris CNUR 6 = assay: as above; conditions: CNUR6, TSA dishes, 24 h at 35°C, read-out: Minimum Inhibiting Concentration
Procedure: as §1, §2, §3, §4, §5, §6, §7

Escherichia coli 120 = assay: as above; conditions: TSA dishes, 24 h at 35°C, read-out: Minimum Inhibiting Concentration
Procedure: as §1, §2, §3, §4, §5, §6, §7

[11] = tested on: Staphylococcus aureus ATCC 6538; assay: as above; conditions: ATCC6538, TSA dishes, 24 h at 35°C, read-out: Minimum Inhibiting Concentration
Procedure: as §1, §2, §3, §4, §5, §6, §7

[12] = tested on: Acinebacter calcoloaceticus OSMPV 1130; assay: as above; conditions: TSA dishes, 24 h at 35°C, read-out: Minimum Inhibiting Concentration
Procedure: as §1, §2, §3, §4, §5, §6, §7

Escherichia coli CNUR 1 = assay: as above; conditions: CNUR1, TSA dishes, 24 h at 35°C, read-out: Minimum Inhibiting Concentration
Procedure: as §1, §2, §3, §4, §5, §6, §7

[13] = tested on: Pseudomonas aeruginosa CNUR 2; assay: as above; conditions: CNUR2, TSA dishes, 24 h at 35°C, read-out: Minimum Inhibiting Concentration
Procedure: as §1, §2, §3, §4, §5, §6, §7

Escherichia coli CNUR 8 = assay: as above; conditions: CNUR8, TSA dishes, 24 h at 35°C, read-out: Minimum Inhibiting Concentration
Procedure: as §1, §2, §3, §4, §5, §6, §7

[14] = tested on: Enterobacter cloacae OMNF 1174; assay: as above; conditions: OMNF1174, TSA dishes, 24 h at 35°C, read-out: Minimum Inhibiting Concentration
Procedure: as §1, §2, §3, §4, §5, §6, §7

[15] = geometrical average of the MIC over the 5 Gram + strains, read-out: Geometrical Average
[16] = geometrical average of the MIC over the 15 Gram - strains, read-out: Geometrical Average
[17] = mean log of the MIC over the 15 Gram - strains, read-out: Log (converted)

Row | SMILES | MIC (Gram +; [15]) | MIC (Gram +; read-out: Log (converted)) | MIC (Gram -; [16]) | MIC (Gram -; [17]) | MIC [1] | MIC [2] | MIC [3] | MIC [4] | MIC [5] | MIC [6] | MIC [7] | MIC (Escherichia coli ISF 432) | MIC (Shighella enteritidis) | MIC [8] | MIC [9] | MIC [10] | MIC (Proteus vulgaris CNUR 6) | MIC (Escherichia coli 120) | MIC [11] | MIC [12] | other results
1 | Nc1cc2c(=O)c(C(=O)O)cn(C3CC3)c2c(F)c1N1CCSCC1 [Compound 23] | 0.758 µg/mL | 0.759 µg/mL (≈ 2.09 µM) | 1.04 µg/mL (≈ 2.85 µM) | 1.04 µg/mL (≈ 2.85 µM) | 0.25 µg/mL (≈ 0.688 µM) | 1 µg/mL (≈ 2.75 µM) | 0.5 µg/mL (≈ 1.38 µM) | 64 µg/mL (≈ 176 µM) | 1 µg/mL (≈ 2.75 µM) | 0.12 µg/mL (≈ 0.33 µM) | 0.5 µg/mL (≈ 1.38 µM) | 0.06 µg/mL (≈ 0.165 µM) | 4 µg/mL (≈ 11 µM) | 0.03 µg/mL (≈ 0.0826 µM) | 4 µg/mL (≈ 11 µM) | 4 µg/mL (≈ 11 µM) | 64 µg/mL (≈ 176 µM) | 0.25 µg/mL (≈ 0.688 µM) | 0.5 µg/mL (≈ 1.38 µM) | 1 µg/mL (≈ 2.75 µM) | MIC (Escherichia coli CNUR 1): 0.5 µg/mL (≈ 1.38 µM); MIC [13]: 8 µg/mL (≈ 22 µM); MIC (Escherichia coli CNUR 8): 0.25 µg/mL (≈ 0.688 µM); MIC [14]: 1 µg/mL (≈ 2.75 µM)
2 | CC1CN(c2cc3c(cc2N)c(=O)c(C(=O)O)cn3C2CC2)CCN1 (stereo not drawn) [Compound 14] | 10.6 µg/mL | 10.5 µg/mL (≈ 30.8 µM) | 0.68 µg/mL (≈ 1.99 µM) | 0.679 µg/mL (≈ 1.98 µM) | 16 µg/mL (≈ 46.7 µM) | 4 µg/mL (≈ 11.7 µM) | 16 µg/mL (≈ 46.7 µM) | 64 µg/mL (≈ 187 µM) | 0.5 µg/mL (≈ 1.46 µM) | 0.03 µg/mL (≈ 0.0876 µM) | 4 µg/mL (≈ 11.7 µM) | 0.03 µg/mL (≈ 0.0876 µM) | 0.25 µg/mL (≈ 0.73 µM) | 0.03 µg/mL (≈ 0.0876 µM) | 32 µg/mL (≈ 93.5 µM) | 2 µg/mL (≈ 5.84 µM) | 32 µg/mL (≈ 93.5 µM) | 0.06 µg/mL (≈ 0.175 µM) | 16 µg/mL (≈ 46.7 µM) | 16 µg/mL (≈ 46.7 µM) | MIC (Escherichia coli CNUR 1): 0.12 µg/mL (≈ 0.35 µM); MIC [13]: 4 µg/mL (≈ 11.7 µM); MIC (Escherichia coli CNUR 8): 0.12 µg/mL (≈ 0.35 µM); MIC [14]: 0.25 µg/mL (≈ 0.73 µM)
